Test results published in patent publication US20260007133A1, “HERBICIDAL COMPOSITION COMPRISING AZINE COMPOUNDS” (BASF SE, priority 2022, published 2026).

Tests used:
Type in all cases: in vivo
Echinochloa crus-galli = assay: Greenhouse post-emergence (POST) herbicidal test on ECHCG
Description: (§1) The culture containers used were plastic pots containing loamy sand with approximately 3.0% of humus as substrate. The seeds of the test plants were sown separately for each species.
(§2) For the post-emergence treatment, the test plants were grown to a plant height of from 3 to 15 cm, depending on the plant habit, and only then treated with the active compounds which had been suspended or emulsified in water. To this end, the test plants were either sown directly, and grown in the same containers, or they were first grown separately as seedlings and transplanted into the test containers a few days prior to treatment.
(§3) Depending on the species, the plants were kept at 10-25° C. and 20-35° C., respectively.
(§4) The test period extended over 2 to 4 weeks. During this time, the plants were tended and their response to the individual treatments was evaluated.
(§5) Evaluation was carried out using a scale from 0 to 100. 100 means no emergence of the plants, or complete destruction of at least the above-ground parts, and 0 means no damage or normal course of growth. A good herbicidal activity is given at values of at least 70, and very good herbicidal activity is given at values of at least 85.
(§6) If not stated differently, the respective components A and B, and if appropriate, C were formulated as a 5% by weight strength emulsion concentrate and, with addition of the amount of solvent system, introduced into the spray liquor used for applying the active compound.
(§7) As indicated application was either post emergent (POST) at the respective growth stage (GS) of the weed (BBCH code), or pre-emergent (PRE). […]

Digitaria sanguinalis = assay: Greenhouse post-emergence (POST) herbicidal test on DIGSA
Description: as §1, §2, §3, §4, §5, §6, §7

Abutilon theophrasti [1] = assay: Greenhouse post-emergence (POST) herbicidal test on ABUTH; conditions: Abutilon theophrasti, post-emergence
Description: as §1, §2, §3, §4, §5, §6, §7

Commelina benghalensis = assay: Greenhouse pre-emergence (PRE) herbicidal test on COMBE
Description: as §1
(§8) The containers were irrigated gently to promote germination and growth and subsequently covered with transparent plastic hoods until the plants had rooted.
as §3, §4, §5, §7

Euphorbia heterophylla [2] = assay: Greenhouse pre-emergence (PRE) herbicidal test on EPHHL; conditions: Euphorbia heterophylla, pre-emergence
Description: as §1, §8, §3, §4, §5, §7

Geranium pusillum = assay: Greenhouse post-emergence (POST) herbicidal test on GERPU
Description: as §1, §2, §3, §4, §5, §6, §7

Abutilon theophrasti [3] = assay: Greenhouse pre-emergence (PRE) herbicidal test on ABUTH; conditions: Abutilon theophrasti, pre-emergence, 480 h, PRE, ABUTH, Prosulfocarb solo 600 gai/ha, 20 DAT
Description: as §1, §8, §3, §4, §5, §7

Ambrosia artemisiifolia = assay: Greenhouse pre-emergence (PRE) herbicidal test on AMBEL; conditions: Ambrosia artemisiifolia, pre-emergence, 480 h, PRE, AMBEL, Prosulfocarb solo 600 gai/ha, 20 DAT
Description: as §1, §8, §3, §4, §5, §7

Lolium multiflorum = assay: Greenhouse pre-emergence (PRE) herbicidal test on LOLMU; conditions: PRE, 20 DAT
Description: as §1, §8, §3, §4, §5, §7

Euphorbia heterophylla [4] = assay: Greenhouse post-emergence (POST) herbicidal test on EPHHL; conditions: Euphorbia heterophylla, post-emergence, POST, EPHHL
Description: as §1, §2, §3, §4, §5, §6, §7

Alopecurus myosuroides = assay: Greenhouse pre-emergence (PRE) herbicidal test on ALOMY; conditions: PRE, 20 DAT
Description: as §1, §8, §3, §4, §5, §7

## COc1cnc(OC)n2nc(NS(=O)(=O)c3c(OCC(F)F)cccc3C(F)(F)F)nc12 [Penoxsulam, penoxsulam]
Echinochloa crus-galli; Echinochloa crus-galli, post-emergence, ECHCG POST, use rate 2 gai/ha, read-out: % activity
  inhibition at 2 g/ha: 10%
Echinochloa crus-galli; Echinochloa crus-galli, post-emergence, ECHCG POST, use rate 4 gai/ha
  inhibition at 4 g/ha: 35%
Digitaria sanguinalis; Digitaria sanguinalis, post-emergence, DIGSA POST, use rate 2 gai/ha, read-out: % activity
  inhibition at 2 g/ha: 0%
Digitaria sanguinalis; Digitaria sanguinalis, post-emergence, DIGSA POST, use rate 4 gai/ha
  inhibition at 4 g/ha: 10%
Abutilon theophrasti [1]; ABUTH POST, use rate 4 gai/ha
  inhibition at 4 g/ha: 0%

## C[C@@H](Oc1ccc(Oc2nc3ccc(Cl)cc3o2)cc1)C(=O)N(C)c1ccccc1F [Metamifop, metamifop]
Echinochloa crus-galli; ECHCG POST, use rate 6.25 gai/ha
  % activity: 50%
Digitaria sanguinalis; DIGSA POST, use rate 25 gai/ha
  % activity: 85%

## CS(=O)(=O)c1ccc(C(=O)C2C(=O)CCCC2=O)c([N+](=O)[O-])c1 [Mesotrione, mesotrione]
Commelina benghalensis; Commelina benghalensis, pre-emergence, COMBE PRE, use rate 4 gai/ha
  inhibition at 4 g/ha: 25%
Euphorbia heterophylla [2]; EPHHL PRE, use rate 4 gai/ha
  inhibition at 4 g/ha: 20%
Euphorbia heterophylla [2]; EPHHL PRE, use rate 16 gai/ha
  inhibition at 16 g/ha: 45%

## CSc1nnc(C(C)(C)C)c(=O)n1N [Metribuzin, metribuzin]
Commelina benghalensis; Commelina benghalensis, pre-emergence, COMBE PRE, use rate 31.25 gai/ha
  inhibition at 31.25 g/ha: 10%
Commelina benghalensis; Commelina benghalensis, pre-emergence, COMBE PRE, use rate 62.5 gai/ha
  inhibition at 62.5 g/ha: 20%
Geranium pusillum; Geranium pusillum, post-emergence, GERPU POST, use rate 31.25 gai/ha
  inhibition at 31.25 g/ha: 70%

## CCOC(=O)COc1ncccc1Oc1cc(-n2c(=O)cc(C(F)(F)F)n(C)c2=O)c(F)cc1Cl [Epyrifenacil, epyrifenacil]
Echinochloa crus-galli; ECHCG POST, use rate 1 gai/ha
  % activity: 45%
Digitaria sanguinalis; DIGSA POST, use rate 0.5 gai/ha
  % activity: 20%
Digitaria sanguinalis; DIGSA POST, use rate 1 gai/ha
  % activity: 55%

## CCCN(CCC)C(=O)SCc1ccccc1 [Prosulfocarb, prosulfocarb]
Abutilon theophrasti [3]
  pest or weed control at 600 g/ha: 40%
Geranium pusillum; Geranium pusillum, post-emergence, 480 h, POST, GERPU, Prosulfocarb solo 600 gai/ha, 20 DAT
  pest or weed control at 600 g/ha: 20%
Ambrosia artemisiifolia
  pest or weed control at 600 g/ha: 10%
Euphorbia heterophylla [2]; 480 h, PRE, EPHHL, Prosulfocarb solo 150 gai/ha, 20 DAT
  pest or weed control at 150 g/ha: 5%
Euphorbia heterophylla [2]; 480 h, PRE, EPHHL, Prosulfocarb solo 600 gai/ha, 20 DAT
  pest or weed control at 600 g/ha: 5%
Digitaria sanguinalis; Digitaria sanguinalis, post-emergence, 480 h, POST, DIGSA, Prosulfocarb solo 600 gai/ha, 20 DAT
  pest or weed control at 600 g/ha: 5%
Lolium multiflorum; Lolium multiflorum, pre-emergence, 480 h, LOLMU, Prosulfocarb solo 150 gai/ha
  pest or weed control at 150 g/ha: 15%
Lolium multiflorum; Lolium multiflorum, pre-emergence, 480 h, LOLMU, Prosulfocarb solo 600 gai/ha
  pest or weed control at 600 g/ha: 20%

## COc1c(Cl)ccc(Cl)c1C(=O)O [Dicamba, dicamba]
Abutilon theophrasti [1]; POST, ABUTH, use rate 31.25 gai/ha
  inhibition at 31.25 g/ha: 60%
Abutilon theophrasti [1]; POST, ABUTH, use rate 62.5 gai/ha
  inhibition at 62.5 g/ha: 65%
Euphorbia heterophylla [4]; use rate 31.25 gai/ha
  inhibition at 31.25 g/ha: 10%
Euphorbia heterophylla [4]; use rate 62.5 gai/ha
  inhibition at 62.5 g/ha: 35%

## COC(=O)c1ccc(CNS(C)(=O)=O)cc1S(=O)(=O)NC(=O)Nc1nc(OC)cc(OC)n1 [Mesosulfuron-Methyl, mesosulfuron-methyl]
Commelina benghalensis; PRE, use rate 0.25 gai/ha, 20 DAT
  % activity: 35%
Alopecurus myosuroides; use rate 0.25 gai/ha
  % activity: 0%
Alopecurus myosuroides; use rate 1 gai/ha
  % activity: 10%
Lolium multiflorum; use rate 0.25 gai/ha
  % activity: 0%
Lolium multiflorum; use rate 1 gai/ha
  % activity: 0%

## CP(=O)(O)CC[C@H](N)C(=O)O.N [L-Glufosinate-P-Ammonium]
Geranium pusillum; POST, GERPU, use rate 75 gai/ha, 20 DAT
  % activity: 65%
Echinochloa crus-galli; POST, ECHCG, use rate 75 gai/ha, 20 DAT
  % activity: 30%
